16 molecules from patent US20180214428A1, “3-(1H-INDOL-2-YL)-1H-PYRAZOLO[3,4-B]PYRIDINES AND THERAPEUTIC USES THEREOF” (Samumed, LLC, priority 2015, published 2018) can be followed below.

This experiment concerns primary human mesenchymal stem cells (hMSCs). The experiment in a line: Induction of chondrogenesis in primary human mesenchymal stem cells. The following applies: 6 days; for Emax / EC50: Homo sapiens, Mesenchymal stem cells, 144 h; for Emax: read-out: Max. Activity as % TGF-β3 activity; for EC50: concentration required to induce 50% levels of chondrogenesis vs TGF-β3, read-out: Conc (nM) of 50% TGF-β3 activity. The experiment is classed as cell-based. The method, then: Representative compounds were screened using primary human mesenchymal stem cells (hMSCs) to determine their ability to induce chondrogenesis (process by which cartilage is developed).
Primary human mesenchymal stem cells (hMSCs) were purchased from Lonza (Walkersville, Md.) and expanded in Mesenchymal Stem Cell Growth Media (Lonza). Cells between passage 3 and 6 were used for the experiments.
Each compound was dissolved in DMSO as a 10 mM stock and used to prepare compound source plates. Serial dilution (1:3, 6-point dose-response curves from 2700 nM to 10 nM) and compound transfer was performed using the ECHO 550 (Labcyte, Sunnyvale, Calif.) into 96-well clear bottom assay plates (Greiner Bio-One) with appropriate DMSO backfill for a final DMSO concentration of 0.03%. hMSCs were plated at 20,000 cells/well in 250 μL/well Incomplete Chondrogenic Induction Medium (Lonza; DMEM, dexamethasone, ascorbate, insulin-transferrin-selenium [ITS supplement], gentamycin-amphotericin [GA-1000], sodium pyruvate, proline and L-glutamine). TGF-β3 (10 ng/mL) was used as a positive control for differentiation while negative control wells were treated with 75 nL DMSO for normalization and calculating EC50 values. Cells were incubated at 37° C. and 5% CO2 for 6 days. To image chondrogenic nodules, the cells were fixed using 4% formaldehyde (Electron Microscopy Sciences), and stained with 2 μg/mL Rhodamine B (Sigma-Aldrich) and 20 μM Nile Red (Sigma-Aldrich) [Johnson K., et. al, A Stem Cell-Based Approach to Cartilage Repair, Science, (2012). 336(6082), 717-721]. The nodules imaged (4 images per well at 4× magnification) by excitation at 531 nm and emission at 625 nm and quantified using the CellInsight CX5 (Thermo Scientific). Number of nodules in each well was normalized to the average of 3 DMSO treated wells on the same plate using Excel (Microsoft Inc.). The normalized averages (fold change over DMSO) of 3 replicate wells for each compound concentration were calculated. Due to solubility limitations of some of the compounds, curve fitting was incomplete leading to inaccurate EC50 determinations.
Using TGF-β3 as a positive control, the concentration of representative compounds required to induce 50% levels of chondrogenesis is reported. In addition, the maximum activity of each compound and the respective dose that each compound reached maximum chondrogenesis activity is reported.

The mark [1] stands for this setting: chondrogenic nodules, TGF-β3 (10 ng/mL) positive control.

For the molecule `CN1CCN(c2cccc3[nH]c(-c4n[nH]c5ncc(-c6cncc(CN7CCCCC7)c6)cc45)cc23)CC1` [Compound 215, 3-(4-(4-Methylpiperazin-1-yl)-1H-indol-2-yl)-5-(5-(piperidin-1-ylmethyl)pyridin-3-yl)-1H-pyrazolo[3,4-b]pyridine], the EC50 turned out to be 300 nM. For the same molecule, the Emax under setting [1] is 51%.

For `CN1CCN(c2cccc3[nH]c(-c4n[nH]c5ncc(-c6cncc(NC(=O)C7CCCC7)c6)cc45)cc23)CC1` [Compound 222, N-(5-(3-(4-(4-Methylpiperazin-1-yl)-1H-indol-2-yl)-1H-pyrazolo[3,4-b]pyridin-5-yl)pyridin-3-yl)cyclopentanecarboxamide], the EC50 amounted to 100 nM. The Emax under setting [1] stood at 408%. As for `CN(C)c1cncc(-c2cnc3[nH]nc(-c4cc5c(-c6cccc(F)c6)cccc5[nH]4)c3c2)c1` [Compound 5, 5-(3-(4-(3-Fluorophenyl)-1H-indol-2-yl)-1H-pyrazolo[3,4-b]pyridin-5-yl)-N,N-dimethylpyridin-3-amine], the Emax under setting [1] came to 49%. With `CN(C)CCNc1cc(F)cc(-c2cccc3[nH]c(-c4n[nH]c5ncc(-c6ccncc6)cc45)cc23)c1` [Compound 440], the “Max. Activity as % TGF-β3 activity” value under setting [1] amounted to 31%. Further, the “Conc (nM) of Max. activity” value (chondrogenic nodules, dose at which maximum chondrogenesis activity was reached) came to 2700 nM. For the molecule `c1ccc(-c2cccc3[nH]c(-c4n[nH]c5ncc(-c6cncc(CN7CCCC7)c6)cc45)cc23)nc1` [Compound 131, 3-(4-(Pyridin-2-yl)-1H-indol-2-yl)-5-(5-(pyrrolidin-1-ylmethyl)pyridin-3-yl)-1H-pyrazolo[3,4-b]pyridine], under setting [1], the Emax stood at 161%.

With `Nc1cncc(-c2cnc3[nH]nc(-c4cc5c(-c6ccccc6F)cccc5[nH]4)c3c2)c1` [Compound 49, 5-(3-(4-(2-Fluorophenyl)-1H-indol-2-yl)-1H-pyrazolo[3,4-b]pyridin-5-yl) pyridin-3-amine], the Emax under setting [1] was 134%. For `CCCCC(=O)Nc1cncc(-c2cnc3[nH]nc(-c4cc5c(-c6ccccn6)cccc5[nH]4)c3c2)c1` [Compound 136, N-(5-(3-(4-(Pyridin-2-yl)-1H-indol-2-yl)-1H-pyrazolo[3,4-b]pyridin-5-yl)pyridin-3-yl)pentanamide], the Emax under setting [1] is 41%. Consider `CC(C)CC(=O)Nc1cncc(-c2cnc3[nH]nc(-c4cc5c(-c6cc(F)cc(NCCN(C)C)c6)cccc5[nH]4)c3c2)c1` [Compound 424, N-(5-(3-(4-(3-((2-(Dimethylamino)ethyl)amino)-5-fluorophenyl)-1H-indol-2-yl)-1H-pyrazolo[3,4-b]pyridin-5-yl)pyridin-3-yl)-3-methylbutanamide], for which the Emax under setting [1] was found to be 63%. With `CS(=O)(=O)NCc1cc(F)cc(-c2cccc3[nH]c(-c4n[nH]c5ncc(-c6cncc(N)c6)cc45)cc23)c1` [Compound 453, N-(3-(2-(5-(5-Aminopyridin-3-yl)-1H-pyrazolo[3,4-b]pyridin-3-yl)-1H-indol-4-yl)-5-fluorobenzyl)methanesulfonamide], the EC50 was 900 nM. Further, under setting [1], the Emax is 189%.

In the case of `CC(C)(C)CC(=O)Nc1cncc(-c2cnc3[nH]nc(-c4cc5c(-c6ccccn6)cccc5[nH]4)c3c2)c1` [Compound 133, 3,3-Dimethyl-N-(5-(3-(4-(pyridin-2-yl)-1H-indol-2-yl)-1H-pyrazolo[3,4-b]pyridin-5-yl)pyridin-3-yl)butanamide], the EC50 is 900 nM. In addition, the Emax under setting [1] turned out to be 345%. On to `CN(C)c1cncc(-c2cnc3[nH]nc(-c4cc5c(N6CCCCC6)cccc5[nH]4)c3c2)c1` [Compound 151, N,N-Dimethyl-5-(3-(4-(piperidin-1-yl)-1H-indol-2-yl)-1H-pyrazolo[3,4-b]pyridin-5-yl)pyridin-3-amine], for which, under setting [1], the Emax came out at 22%. Same read-out and setting: under `CCNCc1cncc(-c2cnc3[nH]nc(-c4cc5c(-c6ccccn6)cccc5[nH]4)c3c2)c1` [Compound 124, N-((5-(3-(4-(Pyridin-2-yl)-1H-indol-2-yl)-1H-pyrazolo[3,4-b]pyridin-5-yl)pyridin-3-yl)methyl)ethanamine] stands 32%. With `CCNCc1cncc(-c2cnc3[nH]nc(-c4cc5c(-c6cc(F)cc(NCCN(C)C)c6)cccc5[nH]4)c3c2)c1` [Compound 428, N^1-(3-(2-(5-(5-((Ethylamino)methyl)pyridin-3-yl)-1H-pyrazolo[3,4-b]pyridin-3-yl)-1H-indol-4-yl)-5-fluorophenyl)-N^2,N^2-dimethylethane-1,2-diamine], the Emax under setting [1] came out at 74%. Same read-out and setting: under `FC1(F)CCN(Cc2cncc(-c3cnc4[nH]nc(-c5cc6c(-c7ccncc7)cccc6[nH]5)c4c3)c2)C1` [Compound 118, 5-(5-((3,3-Difluoropyrrolidin-1-yl)methyl)pyridin-3-yl)-3-(4-(pyridin-4-yl)-1H-indol-2-yl)-1H-pyrazolo[3,4-b]pyridine] stands 29%; under `CN(C)CCOc1cncc(-c2cnc3[nH]nc(-c4cc5c(-c6cccnc6)cccc5[nH]4)c3c2)c1` [Compound 565, N,N-Dimethyl-2-((5-(3-(4-(pyridin-3-yl)-1H-indol-2-yl)-1H-pyrazolo[3,4-b]pyridin-5-yl)pyridin-3-yl)oxy)ethan-1-amine], 46%. On to `c1ccc2[nH]c(-c3n[nH]c4ncc(-c5cncc(CN6CCCC6)c5)cc34)cc2c1` [Compound 240, 3-(1H-Indol-2-yl)-5-(5-(pyrrolidin-1-ylmethyl)pyridin-3-yl)-1H-pyrazolo[3,4-b]pyridine], for which the EC50 stood at 10 nM. For the same molecule, the Emax under setting [1] is 98%.
